“Also recorded” adds a separate entry of the source.

For data set [1], the system named is carrageenan induced paw edema. Kind of data set: Carrageenan induced paw inflammation in mice. The class given is in vivo, mouse. Conditions: Ibuprofen 100 mg/kg, 5th hour. On the procedure: The effect of A-O complex was tested under in vivo conditions. Carrageenan, an inflammation inducing agent was injected into the hind foot pad of mouse to induce acute inflammation. The edema attains peak at around 3 hours post carrageenan challenge. This is a convenient model to assess the anti-inflammatory potency of test drugs to reduce or prevent the development of swelling. The protocol followed herein is as per Morris (2003) [Morris C J, 2003, Carrageenan induced paw edema in rat and mouse. In: Winyard P. G., Willoughby D. A. (eds) Inflammation Protocols. Methods in Molecular Biology, Vol 225. Humana Press. Pp 115-121].
Preparation of carrageenan: To prepare 0.5% of carrageenan solution, 50 mg of lamda-carrageenan ([…], Sigma Chemical Co., St. Louis, Mo., USA) was slowly added onto a small beaker containing 10 ml of normal saline. The powder was allowed to swell for some time and then slightly heated (not boiled) to dissolve the carrageenan. The solution was stirred during the heating. Once dissolved, the solution was cooled and aliquoted and stored at 4 degree Celsius.
Method: For experiment, the mice were acclimatized in cages under standard light and temperature settings with access to food and water ad libitum. Mice were acclimatized for 1 week in respective cages to minimize stress. At the day of experiment, mice were placed in a temporary animal restraint and 50 microlitre of carrageenan solution was administered by intraplantar injection to the right hind paw of each mouse. The left paw served as control and was administered 50 microlitre of normal saline.
To determine the efficacy of A-O complex different concentrations of complex viz. 5, 20 and 50 microgram per 100 g body weight of mice were administered intraperitoneally 1 hour before carrageenan challenge. Ibuprofen (100 mg/kg, Sigma Chemical Co., St. Louis, Mo., USA) served as positive control for the experiment. Paw size was measured by wrapping a piece of cotton thread round the paw of each […] and recording the length of the thread, the paw circumference, by use of a metric ruler. Paws were measured immediately before and at specified time points after carrageenan injection. Inhibitory activity was calculated at 1-5 h after carrageenan injection with the following formula: % Inhibition=[(Ct−C0)control−(Ct−C0)treated]/(Ct−C0)control×100, where Ct is paw size after carrageenan injection and C0 is paw size before carrageenan injection.
Background: In the carrageenan paw model, swelling and tenderness develop within hours.

The subject of data set [2] is RAW264.7 macrophages. The experiment in a line: Lactate dehydrogenase (LDH) assay in macrophages. The data set is classed as cell-based, murine. The conditions noted are these: macrophages, serum starved, 1 hour. On the procedure:
Effect of Abeta-Glu-OC (3 ng) mixture on macrophage integrity: To determine whether the mixture produced any toxicity lactate dehydrogenase (LDH) assay was performed. Briefly, the cells were incubated with the mixture under serum starved conditions for 1 hour followed by LDH assay. LDH was assayed using In vitro toxicology assay kit from Sigma-Aldrich, St. Louis, Mo., USA (cat. no.-TOX7) as per the manufacturer's directions. LDH assay substrate solution, LDH assay dye solution and 1×LDH assay cofactor were provided with the kit. […] To this LDH assay mixture was added and incubated at room temperature in the dark for 20-30 min. The reaction was terminated by the addition of 1/10 volume of 1N HCl. Absorption was taken 490 nm with the help of in a Tecan Microplate reader, Switzerland with Magellan™ software.

Data set [3] has as its system 5×FAD Tg mice. The experiment in a line: Morris water maze test in 5×FAD Tg mice. The data set is classed as in vivo. The conditions noted are these: 300 ng per mouse subcutaneously for 2 months, vs 5×FAD Tg control. On the procedure: (§1) Two month old 5×FAD Tg mice, both male as well as female were used for the study. For the purposes of this study wild type mice is referred to as Wt and 5×FAD mice is referred to as Tg. For experimentation, the mice were divided in below groups for treatment: 1. Wild type mice given vehicle (1×PBS or phosphate buffered saline; pH 7.4). 2. 5×FAD Transgenic mice given vehicle. 3. 5×FAD Transgenic mice given undercarboxylated osteocalcin (Glu-OC) subcutaneously at dose of 300 ng per mouse of weight ranging from 25-28 g for 2 months.
Glu-OC at a dose of 300 ng per mouse was administered subcutaneously for 2 months. To evaluate the potential of Glu-OC against development of Alzheimer's disease in 5×FAD Tg mice (a mouse model for Alzheimer's disease), the following methodologies used conducted: Morris water maze (MWM) test, immunohistochemistry, double immunostaining, ELISA and Congo Red staining. […] The training was given for the five consecutive days, with the video recording and the track of the animal was also recorded using the Any-maze animal behaviour software. Time taken to find the hidden platform is calculated and plotted.

Data set [4] deals with 5×FAD Tg mice. Kind of data set: Brain amyloid pathology by Congo Red staining and fibrillar Abeta42 immunostaining. The data set is classed as in vivo, mouse. Conditions: for amyloid pathology / deposits in brain (Congo Red): 300 ng per mouse subcutaneously for 2 months. On the procedure: as §1
(§2) For immunohistochemistry, sacrificed animals were perfused using 4% paraformaldehyde perfusion through the heart and the brains were harvested and submerged in the same fixative for not more than 24 hours. Brains were then washed in 1×PBS (pH 7.4) and placed in 30% sucrose-PBS solution where these initially floated owing to the weight of the sucrose. Upon saturation, the brains sank to the bottom of the sucrose solution. These were then removed and washed in PBS. Brain samples were quick frozen in liquid nitrogen and then embedded in polyfreeze tissue freezing medium in a plastic mould inside a cryostat where in temperature was −20° C. The samples were then stored in −80° C. until sectioning. Sections of 15-20 micrometre was cut in a cryostat and laid over high adsorbent microslides. For unmasking antigens, slides were heated at 55° C. for 10 min followed by hydration in PBS for 5 min and then permeabilization using 0.1% Triton X-100 in PBS containing 1% BSA and 1% normal goat serum (IHC buffer). For immunostaining, brain sections were incubated in primary antibodies (fibrillar Amyloid beta antibody, catalogue number MABN638 was from Millipore-Merk; osteocalcin antibody-catalogue number sc365797 was from Santa Cruz Biotechnology; Abeta1-42 antibody D923A #14974 was from Cell Signaling Technology) diluted in IHC buffer in a humidified chamber at room temperature overnight. For double immunostaining, specific antibodies against Abets42 and osteocalcin were incubated together with brain sections. […]

Data set [5] relates to 5×FAD Tg mice. Kind of data set: ELISA of soluble and insoluble Abeta42 in brain. The data set is classed as in vivo, mouse. Conditions: vs 5×FAD Tg control. On the procedure: as §1
as §2, with “sections. After rinsing with PBS three times for 5 min each, sections were incubated with the appropriate secondary antibody conjugated with AlexaFluor 594 or 488 (Molecular Probes, Invitrogen) for 2 h at room temperature. After rinsing with PBS, the coverslips were mounted with ProLong anti-fade mounting medium containing 4′,6-diamidino-2-phenylindole (DAPI) and imaged. Congo Red staining was done using staining kit from Abcam (ab150663) according to manufacturer's instructions. ELISA or enzyme linked immunosorbent assay was conducted on soluble and insoluble fractions prepared from brain samples. (a.) Preparation of soluble or DEA fraction or non-plaque associated Abeta.” for “sections.”
For orientation: ELISA stands for enzyme-linked immunosorbent assay.

In a further data set the target is T1, Abeta42 (Homo sapiens, UniProt P05067).
T1 construct: of Abeta 1-42 peptide; Molecular weight = 4514.1; purchased r-peptide
Kind of data set: Abeta42 fibrillization in situ (TEM, Thioflavin T binding assay). The class given is biochemical. On the procedure: For this study, different concentrations of Glu-OC viz. […] After keeping the samples for 5 minutes, the excess was washed off with ultrapure water and surplus sample and water were wicked away using absorbent paper. The samples were negatively stained using 1% uranyl acetate stain, dried and analyzed in a transmission electron microscope CM10 Philips operated at 80 kV. […] ThT assay measures the changes in fluorescence intensity of ThT upon binding to amyloid fibrils. […] The resulting ThT fluorescence intensities of samples were measured at an emission wavelength of 480 nm and excitation wavelength of 440 nm and 5 nm slit width using a Jobin Vyon Horiba Fluoromax-4 spectrofluorimeter. The inner filter effect was taken into account using the Equation: Fc=F×anti log[(Aex+Aem)/2] where Fc is the corrected flourescence and F is apparent fluorescence, Aex and Aem are the absorbances of the samples at excitation and emission wavelengths respectively.

The subject of data set [6] is RAW264.7 macrophages. Kind of data set: qPCR of Cd74, Cd36 in serum starved macrophages. The class given is cell-based, murine. Conditions: unstimulated RAW264.7 macrophages, with respect to basal. For orientation: Real-time PCR tracks product formation cycle by cycle.

T1 sequence (P05067 672-713): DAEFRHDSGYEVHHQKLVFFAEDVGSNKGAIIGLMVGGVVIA

Consider `CC(C)Cc1ccc(C(C)C(=O)O)cc1` (stereo not drawn) [Positive control, Ibuprofen, reference compound], for which, in data set [1], the edema inhibition was 78%.

For `OO` [H2O2, hydrogen peroxide], in the data set with RAW264.7 macrophages [2], the “LDH in cell culture supernatants (LDH release)” value is given as “induces LDH release”. In addition, in the data set on RAW264.7 macrophages [2] (vs control), the “intracellular LDH” value is “rise in intracellular LDH”.

Turning to undercarboxylated osteocalcin [Glu-OC], the “escape latency (Morris water maze)” value in the data set on 5×FAD Tg mice [3] was “lower escape latency; also recorded: reduced escape latency”. For the same compound, the “amyloid pathology / deposits in brain (Congo Red)” value in the data set on 5×FAD Tg mice [4] is given as “significant reduction in amyloid pathology”; with 5×FAD Tg mice [4] (listed as Gla-OC) it was “lesser amyloid deposits”. Further, in the data set on 5×FAD Tg mice [4] (fibrillar specific Abeta42 antibody), the “fibrillar Abeta42 immunostaining of brain” value is reported as “fewer yet larger Abeta42+ fibrillar amyloid deposits; also recorded: positive for intense fibrillar Abeta42 structures”. The “insoluble (plaque associated) Abeta42 level in brain” value with 5×FAD Tg mice [5] is “reduced”; in the data set with 5×FAD Tg mice [5] (listed as Gla-OC), “significantly reduced”. The “soluble Abeta42 level in brain” value in the data set on 5×FAD Tg mice [5] is on record as “increased”; in the data set with 5×FAD Tg mice [5] (listed as Gla-OC), “significantly increased”. For the same compound, the “Abeta42 fibrillization (TEM)” value at Abeta42 (Abeta42 100 micromolar with 3 ng of osteocalcin) is recorded as “Mature fibrils”; at Abeta42 (Abeta42 100 micromolar, Glu-OC 3-10 ng or none, 1×PBS pH 7.4, 37° C., 8 hours), “demonstrated fibrillization”. Further, the “increase in mRNA level of Cd36” value in the data set on RAW264.7 macrophages [6] is listed as “do not elicit induction”. For the same compound, the “increase in mRNA level of Cd74 (MHC-II)” value in the data set on RAW264.7 macrophages [6] was “do not elicit induction”.
